Entries after “also recorded” stand apart in the source; their conditions may differ.
Tests used:
ALS patients = test: Administration of AKG-containing compositions to human ALS patients, observation of symptoms
Description: In one example, 250 mg of GABA was administered three times per day per os, 30 mg of NADH was administered twice per day sublingually, and 3 grams of AAKG were administered, initially, four times per day per os, with the dosage gradually increasing up to 18 grams, if tolerated by the patient.

[1] = test system: patients suffering from neurodegenerative diseases; test: Oral AKG in patients suffering from neurodegenerative diseases; type: in vivo, human
Description: Initial results in mutant SOD1 mice show similar benefits compared to controls, when administered one example of the composition. […] In some instances, progression of the diseases were delayed or even reversed in human patients.
In Example A of Table A a sustained release formulation of […] is preferred.
For example, an […] ([…] or […]) is included in a composition to be used by patients with a neurodegenerative disease at a baseline dosage.
Results for people with various neurodegenerative diseases have shown that a core composition taken three times daily can provide a combination of supplements that are needed by the patients.

Row | SMILES | improvement with hourly AKG (ALS patients; human patient, AKG supplement hourly during waking hours compared to four times per day) | symptoms of ALS after withdrawal of AKG (ALS patients; withdrawal for a short period (a few days)) | improvement at sub-optimal dosage ([1]; AKG dosage of only six to eight grams) | symptoms when AKG was withheld ([1]; AKG withheld from a patient, then recommenced) | symptoms of neurodegenerative disease ([1]; human patients (ALS, Alzheimers, Muscular Distrophy) taking AKG) | muscle tone and muscle spasticity (ALS patients; GABA administered as a supplement, patients with neurodegenerative diseases such as ALS)
1 | O=C(O)CCC(=O)C(=O)O [AKG, alpha-ketoglutaric acid] | marked improvement | return of symptoms of ALS | some improvement | symptoms returned | fewer symptoms of the diseases; also recorded: marked, obvious improvements | –
2 | NCCCC(=O)O [GABA, gamma aminobutyric acid] | – | – | – | – | – | restore muscle tone; also recorded: diminished muscle spasticity
